Marks after values point to notes of the source that are not given here.
Assay: 4-week repeat-dose toxicology study in rats with 2-week recovery (Study 20000328)
Settings: for Died or Sacrificed Moribund: animals of 15
[1] = 62.5 mg/kg M, end of dosing, animals of 10
[2] = 62.5 mg/kg M, end of recovery, animals of 5
[3] = 125 mg/kg F, end of dosing, animals of 10
[4] = 125 mg/kg F, end of recovery, animals of 5

With `COC1=C(OC)C(=O)C(C/C=C(\C)CC/C=C(\C)CC/C=C(\C)CC/C=C(\C)CC/C=C(\C)CC/C=C(\C)CC/C=C(\C)CC/C=C(\C)CC/C=C(\C)CCC=C(C)C)=C(C)C1=O` [CoQ10, Coenzyme Q10] the “Spleen Histiocytic Infiltration, Mild” value [1] was 0, the “Spleen Histiocytic Infiltration, Moderate” value [1] was 1 and the ALT (62.5 mg/kg M, end of recovery) was 20 IU/L. The APPT (62.5 mg/kg M, end of recovery) was 16.7 s, the AST (62.5 mg/kg M, end of recovery) was 79 IU/L and the “Body Weight, percent difference from controls” value (“Body Weight, percent difference” for short) (62.5 mg/kg M, end of recovery) was “+7.4%”. The “Food Consumption, percent difference from controls” value (62.5 mg/kg M, end of recovery) was “+5.8%”, the GGT (62.5 mg/kg M, end of recovery) was 0.00 IU/L and the “Liver weight (absolute), percent difference from controls” value (62.5 mg/kg M, end of recovery) was “+5.0%”. The “Spleen weight (absolute), percent difference from controls” value (62.5 mg/kg M, end of recovery) was −22.2%, the “Adrenal Gland Vacuolation” value [2] was 5 and the “Adrenal Gland Vacuolation, Marked” value [2] was 0. For the same molecule, the “Adrenal Gland Vacuolation, Mild” value [2] was 3, the “Adrenal Gland Vacuolation, Minimal” value [2] was 2 and the “Adrenal Gland Vacuolation, Moderate” value [2] was 0. The “Gross Pathology: Enlarged Spleen” value [2] was 0, the “Gross Pathology: Pale Iliac Lymph Node” value [2] was 2 and the “Gross Pathology: Pale Liver” value [2] was 2. For the same molecule, the “Gross Pathology: Pale Pancreatic Lymph Node” value [2] was 1, the “Liver Focal Necrosis” value [2] was 0 and the “Liver Focal Necrosis, Mild” value [2] was 0. For the same molecule, the “Liver Focal Necrosis, Minimal” value [2] was 0, the “Liver Histiocytic Infiltration” value [2] was 1 and the “Liver Histiocytic Infiltration, Mild” value [2] was 0. For the same molecule, the “Liver Histiocytic Infiltration, Minimal” value [2] was 1, the “Liver Histiocytic Infiltration, Moderate” value [2] was 0 and the “Liver Multifocal Necrosis” value [2] was 0. The “Liver Multifocal Necrosis, Mild” value [2] was 0, the “Liver Multifocal Necrosis, Moderate” value [2] was 0 and the “Liver Vacuolation” value [2] was 5. For the same molecule, the “Liver Vacuolation, Mild” value [2] was 1, the “Liver Vacuolation, Minimal” value [2] was 4 and the “Liver Vacuolation, Moderate” value [2] was 0. For the same molecule, the “Lymph Node, Man. Histiocytic Infiltration” value [2] was 4, the “Lymph Node, Man. Histiocytic Infiltration, Mild” value [2] was 0 and the “Lymph Node, Man. Histiocytic Infiltration, Minimal” value [2] was 4. The “Lymph Node, Man. Histiocytic Infiltration, Moderate” value [2] was 0, the “Lymph Node, Mes. Histiocytic Infiltration” value [2] was 5 and the “Lymph Node, Mes. Histiocytic Infiltration, Mild” value [2] was 1. For the same molecule, the “Lymph Node, Mes. Histiocytic Infiltration, Minimal” value [2] was 4, the “Spleen Histiocytic Infiltration” value [2] was 2 and the “Spleen Histiocytic Infiltration, Marked” value [2] was 0. For the same molecule, the “Spleen Histiocytic Infiltration, Mild” value [2] was 0, the “Spleen Histiocytic Infiltration, Minimal” value [2] was 2 and the “Spleen Histiocytic Infiltration, Moderate” value [2] was 0. For the same molecule, the “Died or Sacrificed Moribund” value (125 mg/kg F) was 0, the ALT (125 mg/kg F, end of dosing) was 20 IU/L and the APPT (125 mg/kg F, end of dosing) was 14.4* seconds. For the same molecule, the AST (125 mg/kg F, end of dosing) was 76* IU/L, the “Body Weight, percent difference” value (125 mg/kg F, end of dosing) was −5.5% and the Eosinophils (125 mg/kg F, end of dosing) was 0.08 10^3/cmm. For the same molecule, the Erythrocytes (125 mg/kg F, end of dosing) was 6.90* 10^6/cmm, the “Food Consumption, percent difference from controls” value (125 mg/kg F, end of dosing) was −12.5* % and the GGT (125 mg/kg F, end of dosing) was 0.53 IU/L. The Hematocrit (125 mg/kg F, end of dosing) was 39.1* %, the Hemoglobin (125 mg/kg F, end of dosing) was 13.5 g/dL and the Leukocytes (125 mg/kg F, end of dosing) was 9.49 10^3/cmm. The “Liver weight (absolute), percent difference from controls” value (125 mg/kg F, end of dosing) was −0.6%, the Lymphocytes (125 mg/kg F, end of dosing) was 7.35 10^3/cmm and the Neutrophils (125 mg/kg F, end of dosing) was 1.64 10^3/cmm. The “Spleen weight (absolute), percent difference from controls” value (125 mg/kg F, end of dosing) was −11.2%, the “Bone Marrow, Sternum Hyperplasia” value [3] was 0 and the “Bone Marrow, Sternum Hyperplasia, Mild” value [3] was 0. For the same molecule, the “Bone Marrow, Sternum Hyperplasia, Minimal” value [3] was 0, the “Gross Pathology: Enlarged Pancreatic Lymph Nodes” value [3] was 1 and the “Gross Pathology: Pale Adrenal” value [3] was 0. For the same molecule, the “Gross Pathology: Pale Liver” value [3] was 10, the “Gross Pathology: Pale Lymph Nodes” value [3] was 0 and the “Gross Pathology: Pale Ovaries” value [3] was 1. The “Gross Pathology: Pale Pituitary” value [3] was 0, the “Gross Pathology: Pale SQ Skin” value [3] was 3 and the “Liver Focal Necrosis” value [3] was 0. The “Liver Focal Necrosis, Minimal” value [3] was 0, the “Liver Histiocytic Infiltration” value [3] was 9 and the “Liver Histiocytic Infiltration, Mild” value [3] was 7. For the same molecule, the “Liver Histiocytic Infiltration, Minimal” value [3] was 1, the “Liver Histiocytic Infiltration, Moderate” value [3] was 1 and the “Liver Vacuolation” value [3] was 10. The “Liver Vacuolation, Mild” value [3] was 4, the “Liver Vacuolation, Minimal” value [3] was 6 and the “Lymph Node, Man. Histiocytic Infiltration” value [3] was 3. The “Lymph Node, Man. Histiocytic Infiltration, Mild” value [3] was 0, the “Lymph Node, Man. Histiocytic Infiltration, Minimal” value [3] was 2 and the “Lymph Node, Man. Histiocytic Infiltration, Moderate” value [3] was 1. The “Lymph Node, Mes. Histiocytic Infiltration” value [3] was 10, the “Lymph Node, Mes. Histiocytic Infiltration, Mild” value [3] was 5 and the “Lymph Node, Mes. Histiocytic Infiltration, Minimal” value [3] was 5. The “Lymph Node, Mes. Histiocytic Infiltration, Moderate” value [3] was 0, the “Ovary Histiocytic Infiltration” value [3] was 10 and the “Ovary Histiocytic Infiltration, Mild” value [3] was 0. For the same molecule, the “Ovary Histiocytic Infiltration, Minimal” value [3] was 10, the “Ovary Histiocytic Infiltration, Moderate” value [3] was 0 and the “Skin, Dermis Histiocytic Infiltration” value [3] was 2. The “Skin, Dermis Histiocytic Infiltration, Marked” value [3] was 0, the “Skin, Dermis Histiocytic Infiltration, Mild” value [3] was 1 and the “Skin, Dermis Histiocytic Infiltration, Moderate” value [3] was 1. The “Skin, SQ Histiocytic Infiltration” value [3] was 2, the “Skin, SQ Histiocytic Infiltration, Mild” value [3] was 2 and the “Spleen Histiocytic Infiltration” value [3] was 9. For the same molecule, the “Spleen Histiocytic Infiltration, Marked” value [3] was 1, the “Spleen Histiocytic Infiltration, Mild” value [3] was 4 and the “Spleen Histiocytic Infiltration, Moderate” value [3] was 3. The ALT (125 mg/kg F, end of recovery) was 21 IU/L, the APPT (125 mg/kg F, end of recovery) was 15.4 s and the AST (125 mg/kg F, end of recovery) was 68 IU/L. The “Body Weight, percent difference” value (125 mg/kg F, end of recovery) was −3.9%, the “Food Consumption, percent difference from controls” value (125 mg/kg F, end of recovery) was −10.5% and the GGT (125 mg/kg F, end of recovery) was 0.63* IU/L. The “Liver weight (absolute), percent difference from controls” value (125 mg/kg F, end of recovery) was “+3.5%”, the “Spleen weight (absolute), percent difference from controls” value (125 mg/kg F, end of recovery) was −3.4% and the “Adrenal Gland Vacuolation” value [4] was 5. For the same molecule, the “Adrenal Gland Vacuolation, Marked” value [4] was 0, the “Adrenal Gland Vacuolation, Mild” value [4] was 4 and the “Adrenal Gland Vacuolation, Minimal” value [4] was 0. For the same molecule, the “Adrenal Gland Vacuolation, Moderate” value [4] was 1, the “Gross Pathology: Enlarged Spleen” value [4] was 0 and the “Gross Pathology: Pale Iliac Lymph Node” value [4] was 3. For the same molecule, the “Gross Pathology: Pale Liver” value [4] was 5, the “Gross Pathology: Pale Ovaries” value [4] was 0 and the “Gross Pathology: Pale Pancreatic Lymph Node” value [4] was 2. For the same molecule, the “Liver Focal Necrosis” value [4] was 0, the “Liver Focal Necrosis, Mild” value [4] was 0 and the “Liver Focal Necrosis, Minimal” value [4] was 0. The “Liver Histiocytic Infiltration” value [4] was 5, the “Liver Histiocytic Infiltration, Mild” value [4] was 3 and the “Liver Histiocytic Infiltration, Minimal” value [4] was 2. The “Liver Histiocytic Infiltration, Moderate” value [4] was 0, the “Liver Multifocal Necrosis” value [4] was 1 and the “Liver Multifocal Necrosis, Mild” value [4] was 1. For the same molecule, the “Liver Multifocal Necrosis, Moderate” value [4] was 0, the “Liver Vacuolation” value [4] was 5 and the “Liver Vacuolation, Mild” value [4] was 4. The “Liver Vacuolation, Minimal” value [4] was 0, the “Liver Vacuolation, Moderate” value [4] was 1 and the “Lymph Node, Man. Histiocytic Infiltration” value [4] was 1. For the same molecule, the “Lymph Node, Man. Histiocytic Infiltration, Mild” value [4] was 0, the “Lymph Node, Man. Histiocytic Infiltration, Minimal” value [4] was 2 and the “Lymph Node, Man. Histiocytic Infiltration, Moderate” value [4] was 0. For the same molecule, the “Lymph Node, Mes. Histiocytic Infiltration” value [4] was 5, the “Lymph Node, Mes. Histiocytic Infiltration, Mild” value [4] was 1 and the “Lymph Node, Mes. Histiocytic Infiltration, Minimal” value [4] was 4. The “Ovary Histiocytic Infiltration” value [4] was 5, the “Ovary Histiocytic Infiltration, Mild” value [4] was 2 and the “Ovary Histiocytic Infiltration, Minimal” value [4] was 3. For the same molecule, the “Ovary Histiocytic Infiltration, Moderate” value [4] was 0, the “Spleen Histiocytic Infiltration” value [4] was 2 and the “Spleen Histiocytic Infiltration, Marked” value [4] was 0. The “Spleen Histiocytic Infiltration, Mild” value [4] was 0, the “Spleen Histiocytic Infiltration, Minimal” value [4] was 2 and the “Spleen Histiocytic Infiltration, Moderate” value [4] was 0. For the same molecule, the “Died or Sacrificed Moribund” value (125 mg/kg M) was 0, the ALT (125 mg/kg M, end of dosing) was 25 IU/L and the APPT (125 mg/kg M, end of dosing) was 15.9* seconds. For the same molecule, the AST (125 mg/kg M, end of dosing) was 83 IU/L, the “Body Weight, percent difference” value (125 mg/kg M, end of dosing) was −8.7* % and the Eosinophils (125 mg/kg M, end of dosing) was 0.08 10^3/cmm.
